# From US11419902B2, “Compositions comprising bacterial strains” (4D Pharma Research Limited, priority 2018, dated 2022)
# Legend:
# [1] = target: T1, HDAC1 (Homo sapiens, UniProt Q13547); test: Specific HDAC activity analysis (fluorogenic assay kit); format: biochemical; conditions: cell free supernatant diluted 1 in 10
# T1 construct: purchased BPS Bioscience, CA
# Procedure: (§1) Specific HDAC inhibition activity was analysed for HDAC1, 2, 3, 4, 5, 6, 9 using fluorogenic assay kits for each type of HDAC (BPS Bioscience, CA). Assays were conducted according to manufacturer's instructions and each sample were performed in replicates. Cell free supernatants were diluted 1 in 10 and exposed to specific HDAC proteins provided in the kit to maintain consistency between methods.
# (§2) The specific HDAC inhibition profile of the test bacteria strain was investigated. Specific HDAC inhibition assays (BPS Bioscience, CA) were carried out for Class I and Class II HDACs. The ability of the bacterial strain to inhibit HDAC enzymes was compared to butyrate, hexanoic and valeric acid.
# [2] = target: T2, HDAC2 (Homo sapiens, UniProt Q92769); test: as above; format: biochemical; conditions: cell free supernatant diluted 1 in 10
# T2 construct: purchased BPS Bioscience, CA
# T2 sequence (Q92769 whole entry): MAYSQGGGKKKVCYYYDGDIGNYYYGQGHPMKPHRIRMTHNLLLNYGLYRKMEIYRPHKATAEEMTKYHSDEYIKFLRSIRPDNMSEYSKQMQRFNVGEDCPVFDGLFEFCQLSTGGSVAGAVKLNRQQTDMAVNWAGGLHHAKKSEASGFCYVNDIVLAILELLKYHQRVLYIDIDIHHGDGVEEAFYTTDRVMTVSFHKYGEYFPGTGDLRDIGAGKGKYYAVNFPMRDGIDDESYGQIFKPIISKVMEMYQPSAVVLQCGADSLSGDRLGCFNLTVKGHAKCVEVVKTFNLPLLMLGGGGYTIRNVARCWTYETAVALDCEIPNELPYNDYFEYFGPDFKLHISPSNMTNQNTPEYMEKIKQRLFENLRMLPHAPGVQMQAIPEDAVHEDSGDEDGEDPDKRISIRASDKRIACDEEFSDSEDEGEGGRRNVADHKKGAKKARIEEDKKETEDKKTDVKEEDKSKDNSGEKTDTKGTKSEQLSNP
# Procedure: as §1, §2
# [3] = target: T3, HDAC3 (Homo sapiens, UniProt O15379); test: as above; format: biochemical; conditions: cell free supernatant diluted 1 in 10
# T3 construct: purchased BPS Bioscience, CA
# T3 sequence (O15379 whole entry): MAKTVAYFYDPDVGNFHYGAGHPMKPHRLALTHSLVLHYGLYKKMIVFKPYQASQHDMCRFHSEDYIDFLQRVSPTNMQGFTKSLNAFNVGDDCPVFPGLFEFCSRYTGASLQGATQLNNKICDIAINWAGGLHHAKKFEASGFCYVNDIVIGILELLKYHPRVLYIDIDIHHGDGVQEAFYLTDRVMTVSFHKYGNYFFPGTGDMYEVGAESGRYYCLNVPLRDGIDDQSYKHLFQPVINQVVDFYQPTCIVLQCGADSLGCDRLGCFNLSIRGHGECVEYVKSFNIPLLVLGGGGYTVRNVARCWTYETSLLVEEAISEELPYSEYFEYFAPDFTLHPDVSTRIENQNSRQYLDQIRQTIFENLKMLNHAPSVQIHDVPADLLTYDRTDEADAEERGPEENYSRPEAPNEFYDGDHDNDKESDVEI
# T3 sequence (Q9Y618 395-489 partner limits assumed): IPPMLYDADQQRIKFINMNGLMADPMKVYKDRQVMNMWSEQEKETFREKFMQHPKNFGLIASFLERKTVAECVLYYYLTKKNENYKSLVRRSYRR
# Procedure: as §1, §2
# [4] = test system: class II HDACs; test: as above; format: biochemical; conditions: data not shown
# Procedure: as §1, §2
# [5] = test system: IL-8; test: IL-8 secretion by differentiated HT29-mtx cells; format: cell-based; conditions: 24 h, vs untreated and YCFA+-treated cells
# Source text: The ability of MRx0029 to cause any intestinal barrier dysfunction was investigated. HT29-mtx epithelial, mucin-producing cell monolayers were used as an in vitro model to evaluate gut barrier disruption and immune stimulation following treatment with MRx0029.
# [6] = test system: TJP1 and Occludin; test: Ex vivo gene expression in the gut of mice fed with MRx0029; conditions: colon region of the murine intestine
# Procedure: The in vitro results were compared with data from the ex vivo parallel analysis on the gut of mice fed with MRx0029. Gene expression of TJP1 and Occludin was quantified in the colon and ileum. […] Animals were allowed to habituate to their holding room for one week after arrival into the animal unit. They receive oral gavage (200 μL dose) of live biotherapeutics at a dose of 1×10^9 CFU for 6 consecutive days between 15:00 and 17:00. On day 7, the animals are decapitated, and tissues are harvested for experimentation. Animals were sacrificed in a random fashion regarding treatment and testing condition; sampling occurred between 9.00 a.m. and 2:30 p.m. Trunk blood was collected in potassium EDTA (Ethylene Diamine Tetra Acetic Acid) tubes and spun for 15 min at 4000 g. Plasma was isolated and stored at −80° C. for further analysis. The brain was quickly excised, dissected and each brain region was snap-frozen on dry ice and stored at −80° C. for further analysis. Spleen was removed, collected in 5 mL RPMI media (with L-glutamine and sodium bicarbonate, R8758 Sigma+10% FBS (F7524, Sigma)+1% Pen/Strep (P4333, Sigma)) and processed immediately after culls for ex-vivo immune stimulation. […]
# [7] = test system: MAP2; test: MAP2 gene expression in 451Lu cell line (qPCR); format: cell-based; conditions: relative to the cell line only negative control
# Procedure: Cells were plated in 12-well plates at density of 2×10^5 cells/well. After 24 h cells were treated with either DMSO or Vemurafenib (662005; EMD Millipore; VEMU; SKMEL28, SKMEL31, 451Lu, HT29 (1 μM) SKMEL2 (10 μM) or Azacytidine-C (A3656; Sigma Aldrich; AzaC; 5 μg/ml) or both drugs (VEMU+Aza) together, in presence of 10% bacteria supernatants or absence of it (YCFA+). Total RNA was extracted using the RNeasy mini kit (Qiagen, Manchester, UK) according to the manufacturer's instructions, and the RNA concentration was determined by spectrophotometer at 260/280 nm (NanoDrop ND-1000; Thermo Fisher Scientific, Loughborough). For mRNA expression analysis, cDNA was prepared from 2000 ng of total RNA using the High-Capacity cDNA reverse transcription kit (Thermo Fisher, Loughborough) according to the manufacturer's instructions. The reverse transcription reactions were performed in a thermocycler (Biometra, Germany) at 25° C. for 10 min, 37° C. for 120 min, and 85° C. for 5 min Resulting cDNA was amplified in duplicates by the SYBR-Green PCR assay, and products were detected on QuantStudio 6 flex real-time PCR machine (Applied Biosystems, UK) using a standardised profile (initial denaturation of 95° C. for 10 minutes, followed by 40 cycles of 10 seconds of denaturation at 95° C. and 30 seconds of annealing/extension at 65° C.). […]
# [8] = test system: IL-8; test: IL-8 secretion by the HT29 cell line co-incubated with bacteria (ELISA); format: cell-based; conditions: differentiated HT29 cells, bacteria 10^7 CFU 2 hr, with THP1 conditioned media or alone
# Procedure: HT29 cells were plated in 12 well plates at a density of 200,000 cells/well. Cells were being differentiated for 10 days (media change every 2 days). The day of the experiment cells were placed in the anaerobic hood and washed with anaerobic equilibrated HANKs solution. Then 900 ul of growth media (without FBS and antibiotics) was added to the cells. Bacteria cells were resuspended in of growth media (without FBS and antibiotics) and were then added at 10^7 CFU in total in 100 ul. Cells were co-incubated with bacteria for 2 hr in an anaerobic hood. Afterwards cells were washed in growth media without FBS but containing antibiotics. Cells were left to rest in 1 ml of THP1 condition media for 24 h. After 24 h incubation the supernatant was collected and spun down at 10,000 g for 3 min and 4° C. Samples were frozen at −80° C. until further use.
# THP1 condition media: THp1 were seeded on T25 flask at density of 4×10^6/flask. Cells were treated in RPMI media (contain 2 mM L-glutamine without FBS) with 1 ug/ml LPS or LPS+5 mM ATP (ATP added 3 hours after LPS). Cells were left to rest for 24 hr. Thereafter Condition Media (CM) was collected by spinning down the cells at 250 g for 5 min and RT. Different CMs were used to treat HT29 Cells. A small aliquot was frozen at […] for ELISA. […]
# T1 sequence (Q13547 whole entry): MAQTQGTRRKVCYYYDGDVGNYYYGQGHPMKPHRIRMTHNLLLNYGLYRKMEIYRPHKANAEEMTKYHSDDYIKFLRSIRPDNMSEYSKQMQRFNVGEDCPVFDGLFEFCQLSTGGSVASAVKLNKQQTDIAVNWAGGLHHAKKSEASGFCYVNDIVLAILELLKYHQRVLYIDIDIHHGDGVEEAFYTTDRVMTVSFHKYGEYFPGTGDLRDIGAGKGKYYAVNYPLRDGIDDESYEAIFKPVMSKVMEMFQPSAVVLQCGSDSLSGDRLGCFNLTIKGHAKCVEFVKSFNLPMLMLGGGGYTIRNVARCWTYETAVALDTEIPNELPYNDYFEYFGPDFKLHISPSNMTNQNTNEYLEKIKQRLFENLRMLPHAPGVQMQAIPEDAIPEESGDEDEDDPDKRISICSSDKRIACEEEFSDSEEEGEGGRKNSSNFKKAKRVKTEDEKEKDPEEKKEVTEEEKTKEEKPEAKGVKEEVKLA
substance,measurement,setting,value
Megasphaera massiliensis MRx0029,inhibition of HDAC1,[1],very potent inhibitor
same,inhibition of HDAC2,[2],very potent inhibitor
same,inhibition of HDAC3,[3],very potent inhibitor
same,inhibition of class II HDACs,[4],not as significant
same,secretion of IL-8,[5],even lower secretion of IL-8
same,TJP1 gene expression in the colon,[6],significantly up-regulate
same,MAP2 gene expression,[7],increased MAP2 gene expression
same,IL-8 secretion,[8],increased IL-8 secretion
